Measurements from patent publication US11253516B2, “N2,N4-diphenylpyrimidine-2,4-diamine derivative, method for preparing same, and pharmaceutical composition containing same as active ingredient for prevention or treatment of cancer” (Korea Research Institute of Chemical Technology, priority 2017, dated 2022).
Read-outs that look alike come from different tables or passages of the source.

Experiments:
EGFR del19 = EGFR del19 (Homo sapiens (Human), UniProt P00533, DEL746-750); assay: HTRF enzyme assay, EGFR del19; assay type: biochemical; details: recombinant enzyme
Chain of EGFR del19 (P00533 other isoform, or with tags, fused parts or gaps del 1-668/del 746-750 limits assumed): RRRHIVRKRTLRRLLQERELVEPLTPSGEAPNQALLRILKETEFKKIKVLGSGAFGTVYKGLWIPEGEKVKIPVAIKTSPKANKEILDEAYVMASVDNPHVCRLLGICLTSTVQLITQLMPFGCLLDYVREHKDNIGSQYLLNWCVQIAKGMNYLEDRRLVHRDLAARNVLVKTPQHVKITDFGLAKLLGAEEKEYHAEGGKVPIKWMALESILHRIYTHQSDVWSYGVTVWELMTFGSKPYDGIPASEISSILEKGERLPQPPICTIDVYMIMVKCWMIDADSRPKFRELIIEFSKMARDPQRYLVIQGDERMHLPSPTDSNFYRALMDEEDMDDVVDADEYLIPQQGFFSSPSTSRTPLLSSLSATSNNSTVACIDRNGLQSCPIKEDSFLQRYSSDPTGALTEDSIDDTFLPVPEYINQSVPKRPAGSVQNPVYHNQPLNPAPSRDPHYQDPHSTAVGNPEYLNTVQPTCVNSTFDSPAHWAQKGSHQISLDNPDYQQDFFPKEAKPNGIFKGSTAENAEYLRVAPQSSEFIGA
Protocol: (§1) The measurement of an activity on wild-type and EGFR mutation enzyme of the compound of the present invention was experimented by utilizing the HTRF system sold by Cisbio, as follow.
(§2) The composition of the assay buffer used in the activity measurement was 50 mM Tris-HCl pH 7.5, 100 mM NaCl, 7.5 mM MgCl2, 3 mM KCl, 0.01% Tween 20, 0.1% BSA, 1 mM DTT. The enzymatic reaction was carried out hereto by using the peptide substrate labeled with ATP of […] concentration and biotin of […] concentration. The analysis of an EGFR activity inhibitory effect of the compound was carried out in accordance with the analysis reaction recipe below.
(§3) Component 1: […] of EGFR wild-type or mutation enzyme
(§4) Component 2: […] of compound solution
(§5) Component 3: […] of peptide labeled with ATP and biotin
(§6) The enzymatic reaction was initiated by mixing Component 1 and Component 2 first, and then, adding component 3. After the reaction for 2 hours at 37° C., […] of a measurement solution consisting of streptavidin-XL665 provided by Cisbio and anti-phosphotyrosine antibody labeled with europium was added to the enzymatic reaction solution and reacted for 1 hour at ambient temperature. […] The measurement values measured at the seven concentrations of the compound were analyzed by using the Prism program (version 5.01, Graphpad Software, Inc.), and IC50 value of the compound was calculated, which is an inhibitory ability indicator.

[1] = tested on: Ba/F3 EGFR del19 cell line; assay: CellTiter-Glo cell viability, Ba/F3 EGFR del19; assay type: cell-based; details: 72 hours
Protocol: (§7) The measurement of an activity on wild-type and mutation Ba/F3 EGFR cell line of the compound of the present invention was experimented by utilizing the CellTiter-Glo system sold by Promega, as follow. The CellTiter-Glo assay is a method for measuring the ATP present in cells in cell culture conditions to determine the cell viability.
(§8) The analysis of an EGFR inhibitory ability effect of the compound was carried out in accordance with the analysis reaction recipe below.
(§9) After the reaction of 72 hours, the plate treated with the compound was allowed to stand for 30 minutes at ambient temperature, and then, was further treated with 100 μl of the reagent, and was shaked for 10 minutes at ambient temperature. […] The measurement values measured at the eight concentrations of the compound were analyzed by using the Prism program (version 5.01, Graphpad Software, Inc.), and IC50 value of the compound was calculated, which is an inhibitory ability indicator.

EGFR del19/T790M/C797S = EGFR del19/T790M/C797S (Homo sapiens, UniProt P00533, C797S/DEL746-750/T790M); assay: HTRF enzyme assay, EGFR del19/T790M/C797S; assay type: biochemical
Chain of EGFR del19/T790M/C797S (P00533 with tags, fused parts or gaps C797S/DEL746-750/T790M limits assumed): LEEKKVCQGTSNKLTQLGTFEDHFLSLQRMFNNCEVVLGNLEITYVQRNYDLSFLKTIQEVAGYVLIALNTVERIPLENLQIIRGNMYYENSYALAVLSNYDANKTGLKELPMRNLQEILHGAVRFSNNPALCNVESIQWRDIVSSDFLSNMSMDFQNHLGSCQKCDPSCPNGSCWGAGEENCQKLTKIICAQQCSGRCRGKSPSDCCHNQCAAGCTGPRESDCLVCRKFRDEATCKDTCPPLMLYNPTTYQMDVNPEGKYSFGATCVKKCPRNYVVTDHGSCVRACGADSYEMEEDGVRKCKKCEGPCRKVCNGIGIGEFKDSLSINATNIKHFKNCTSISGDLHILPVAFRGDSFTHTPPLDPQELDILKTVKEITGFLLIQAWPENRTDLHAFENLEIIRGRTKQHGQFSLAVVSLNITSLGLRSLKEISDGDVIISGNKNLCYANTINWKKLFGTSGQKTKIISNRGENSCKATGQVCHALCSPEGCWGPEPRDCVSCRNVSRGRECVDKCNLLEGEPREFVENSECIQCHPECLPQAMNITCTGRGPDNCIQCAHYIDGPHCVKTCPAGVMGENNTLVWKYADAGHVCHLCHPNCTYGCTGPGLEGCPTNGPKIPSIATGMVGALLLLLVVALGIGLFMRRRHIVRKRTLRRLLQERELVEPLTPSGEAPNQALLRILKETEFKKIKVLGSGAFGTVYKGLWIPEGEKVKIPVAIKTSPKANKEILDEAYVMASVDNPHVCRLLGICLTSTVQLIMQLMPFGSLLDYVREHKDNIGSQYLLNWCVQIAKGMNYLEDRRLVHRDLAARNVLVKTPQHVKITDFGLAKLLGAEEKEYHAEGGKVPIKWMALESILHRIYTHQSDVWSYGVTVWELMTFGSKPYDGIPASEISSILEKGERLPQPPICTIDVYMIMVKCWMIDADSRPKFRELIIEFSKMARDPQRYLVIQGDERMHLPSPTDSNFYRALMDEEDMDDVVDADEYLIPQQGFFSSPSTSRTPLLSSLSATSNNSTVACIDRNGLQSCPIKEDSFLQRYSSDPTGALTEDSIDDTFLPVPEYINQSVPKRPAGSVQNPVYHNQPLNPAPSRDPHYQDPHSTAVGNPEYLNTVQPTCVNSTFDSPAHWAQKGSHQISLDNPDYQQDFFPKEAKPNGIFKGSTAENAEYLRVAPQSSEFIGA
Protocol: as §1, §2, §3, §4, §5, §6

FLT3 = FLT3 (Homo sapiens (Human), UniProt P36888); assay: KINOMEscan binding, FLT3; details: for inhibitory ability on FLT 3 kinase in comparison with FLT 1 and FLT 4: selectivity in words
Protocol: (§10) The inhibitory activity on FLT kinase, such as wild-type FLT1, FLT3, FLT4, and FLT3 mutation forms, FLT3(D835H), FLT3(D835V), FLT3(D835Y), FLT3(ITD), FLT3(ITD,D835V), FLT3(ITD,F691L), FLT3(K663Q), FLT3(N841I), FLT3(R834Q) was measured.
(§11) FLT3 kinase inhibition was carried out by KINOMEscan method (DiscoverX Inc.). KINOMEscan method consists of the following processes. T7 bacteriophage labeled with FLT kinase was cultured by the infection to E. coli derived from BL21. After the infection of E. coli in the condition of 0.4 of MOI (multiplicity of infection), it was cultured for 90 to 150 minutes at 32° C. to lyse E. coli. The cell debris was removed by centrifugation and filtration, and the kinase protein present in the supernatant was secured. Additionally, the kinase protein was labeled with DNA for the qPCR measurement. The magnetic beads labeled with streptavidin were treated with the standard compound labeled with biotin and reacted for 30 minutes. The resulting beads were used as affinity beads for the measurement of a kinase activity. The binding reaction was initiated with mixing a kinase protein, the affinity beads bound with a ligand, and the compound. In this case, the used buffer solution was 20% SeaBlock, 0.17×PBS, 0.05% Tween 20, 6 mM DTT. All the reactions were carried out in volume of 20 ul at a 384 well plate. After the reaction for 1 hour at ambient temperature, the beads were washed with the solution consisting of 1×PBS, 0.05 Tween 20. Finally, the kinase bound with the beads was eluted by using 1×PBS, 0.05 Tween 20, 0.5 uM standard compound unlabeled with biotin. The affinity of the compound to be tested was indirectly measured by Quantifying the eluted kinase by […].

FLT1 = FLT1 (Homo sapiens (Human), UniProt P17948); assay: KINOMEscan binding, FLT1
Chain of FLT1 (P17948 27-1338): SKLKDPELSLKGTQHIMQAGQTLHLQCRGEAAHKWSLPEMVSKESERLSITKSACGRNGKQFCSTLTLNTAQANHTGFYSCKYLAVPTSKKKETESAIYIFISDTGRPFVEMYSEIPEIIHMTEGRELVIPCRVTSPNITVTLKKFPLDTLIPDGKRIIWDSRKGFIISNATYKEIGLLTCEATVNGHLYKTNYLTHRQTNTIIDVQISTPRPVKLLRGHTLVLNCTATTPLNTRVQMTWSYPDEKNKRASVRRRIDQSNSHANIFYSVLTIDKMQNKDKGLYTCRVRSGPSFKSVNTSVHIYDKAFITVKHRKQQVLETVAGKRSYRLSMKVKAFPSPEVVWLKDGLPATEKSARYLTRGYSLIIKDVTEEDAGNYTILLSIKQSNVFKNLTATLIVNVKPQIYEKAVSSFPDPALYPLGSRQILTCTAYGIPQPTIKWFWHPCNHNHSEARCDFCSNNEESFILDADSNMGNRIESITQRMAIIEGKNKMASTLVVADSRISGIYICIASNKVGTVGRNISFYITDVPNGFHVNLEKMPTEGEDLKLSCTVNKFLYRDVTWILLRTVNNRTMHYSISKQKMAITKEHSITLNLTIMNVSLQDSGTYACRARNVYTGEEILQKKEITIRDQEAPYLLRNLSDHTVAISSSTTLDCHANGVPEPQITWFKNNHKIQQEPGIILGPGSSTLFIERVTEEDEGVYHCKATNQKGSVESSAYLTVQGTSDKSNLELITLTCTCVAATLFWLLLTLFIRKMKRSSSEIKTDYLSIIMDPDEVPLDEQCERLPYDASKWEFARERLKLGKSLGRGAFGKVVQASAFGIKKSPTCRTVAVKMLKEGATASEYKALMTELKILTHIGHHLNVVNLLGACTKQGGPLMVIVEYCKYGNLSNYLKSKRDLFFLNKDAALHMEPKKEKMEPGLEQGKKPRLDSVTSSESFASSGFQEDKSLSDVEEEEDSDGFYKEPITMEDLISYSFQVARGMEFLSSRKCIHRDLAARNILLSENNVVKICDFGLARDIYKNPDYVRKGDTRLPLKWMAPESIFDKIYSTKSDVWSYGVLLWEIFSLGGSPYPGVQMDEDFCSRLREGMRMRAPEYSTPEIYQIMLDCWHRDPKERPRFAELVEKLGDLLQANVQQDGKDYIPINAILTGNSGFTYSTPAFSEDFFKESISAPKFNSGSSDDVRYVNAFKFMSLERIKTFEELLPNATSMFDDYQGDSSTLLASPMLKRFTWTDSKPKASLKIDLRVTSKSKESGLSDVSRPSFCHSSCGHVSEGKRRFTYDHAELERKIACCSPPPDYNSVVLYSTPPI
Protocol: as §10
as §11, with “All the reactions were carried out in volume of 20 ul at a 384 well plate. After the reaction for 1 hour at ambient temperature, the beads were washed with the solution consisting of 1×PBS, 0.05 Tween 20. Finally, the kinase bound with the beads was eluted by using 1×PBS, 0.05 Tween 20, 0.5 uM standard compound unlabeled with biotin.” left out

[2] = tested on: Ba/F3 Del19/T790M/C797S cell line; assay: Relative cell viability alone or in combination with cetuximab; assay type: cell-based; details: for viability at 0.03 µM: Mus musculus; for cell viability decreased than brigatinib in combination with cetuximab: combination with 10 μg cetuximab vs 30 nM brigatinib plus cetuximab
Text: In order to confirm a cell activity on Ba/F3 Del19/T790M/C797S cell line when administering the compound according to the present invention in combination with a conventional drug, cetuximab to be used in single therapy or combination therapy with anticancer chemotherapy in metastatic colorectal cancer, metastatic squamous epithelium head and neck cancer and the like was used to evaluate the cell activity according to the combination administration.
Specifically, brigatinib was used as a control drug, and each of 30 nM of brigatinib, 30 nM of the compound of Example 10 according to the present invention, and 15 nM of the compound of Example 11 was administered to Ba/F3 Del19/T790M/C797S cell line in combination with 10 μg of cetuximab, which is a monoclonal antibody.

Ba/F3 EGFR wt. cell line = assay: CellTiter-Glo cell viability, Ba/F3 EGFR wild-type; assay type: cell-based; details: 72 hours
Protocol: as §7, §8, §9

FLT3(ITD) = FLT3(ITD) (Homo sapiens, UniProt P36888, ITD); assay: KINOMEscan binding, FLT3(ITD)
Protocol: as §10
as §11, with “All the reactions were carried out in volume of 20 ul at a 384 well plate. After the reaction for 1 hour at ambient temperature, the beads were washed with the solution consisting of 1×PBS, 0.05 Tween 20. Finally, the kinase bound with the beads was eluted by using 1×PBS, 0.05 Tween 20, 0.5 uM standard compound unlabeled with biotin.” left out

FLT3(ITD, D835V) = FLT3(ITD, D835V) (Homo sapiens, UniProt P36888, D835V/ITD); assay: KINOMEscan binding, FLT3(ITD, D835V)
Protocol: as §10
as §11, with “All the reactions were carried out in volume of 20 ul at a 384 well plate. After the reaction for 1 hour at ambient temperature, the beads were washed with the solution consisting of 1×PBS, 0.05 Tween 20. Finally, the kinase bound with the beads was eluted by using 1×PBS, 0.05 Tween 20, 0.5 uM standard compound unlabeled with biotin.” left out

FLT3(K663Q) = FLT3(K663Q) (Homo sapiens (Human), UniProt P36888, K663Q); assay: KINOMEscan binding, FLT3(K663Q)
Protocol: as §10
as §11, with “All the reactions were carried out in volume of 20 ul at a 384 well plate. After the reaction for 1 hour at ambient temperature, the beads were washed with the solution consisting of 1×PBS, 0.05 Tween 20. Finally, the kinase bound with the beads was eluted by using 1×PBS, 0.05 Tween 20, 0.5 uM standard compound unlabeled with biotin.” left out

[3] = BaF3, 30 nM Example 10 or 15 nM Example 11 alone vs 10 μg cetuximab alone, read-out: lower cell viability when administered alone than cetuximab
[4] = BaF3, 30 nM Example 10 or 15 nM Example 11 plus 10 μg cetuximab vs alone, read-out: cell viability decreased when administered in combination with cetuximab than when administered alone

Row | IC50 (EGFR del19/T790M/C797S; HTRF, recombinant enzyme, read-out: EGFR del19/T790M/C797S IC50) [nM] | Structure (SMILES) | IC50 (EGFR del19) [nM] | IC50 [1] [nM] | IC50 (EGFR del19/T790M/C797S) [nM] | Kd (FLT3) [nM] | inhibitory ability on FLT 3 kinase in comparison with FLT 1 and FLT 4 (FLT3) | Kd (FLT1) [nM] | viability at 0.03 µM [2, 3] [%] | viability at 0.03 µM [2, 4] [%] | cell viability decreased than brigatinib in combination with cetuximab [2] | IC50 (Ba/F3 EGFR wt. cell line) [nM] | Kd (FLT3(ITD)) [nM] | Kd (FLT3(ITD, D835V)) [nM] | Kd (FLT3(K663Q)) [nM]
1 | – | COc1cc(N2CCC(N3CCN(C)CC3)CC2)ccc1Nc1ncc(Cl)c(Nc2ccccc2NS(C)(=O)=O)n1 [Example 10, N-(2-((5-chloro-2-((2-methoxy-4-(4-(4-methylpiperazin-1-yl)piperidin-1-yl)phenyl)amino)pyrimidin-4-yl)amino)phenyl)methanesulfonamide] | 0.7 | 180 | 0.2 | 3.7 | selectively superior inhibitory ability | > 10000 | ≥ 30 | ≥ 50 | at least 20% | 1000 | 18 | 0.32 | 39
2 | 6 | COc1cc(N2CCC(N(C)C)CC2)ccc1Nc1ncc(Cl)c(Nc2ccccc2NS(C)(=O)=O)n1 [Example 11, N-(2-((5-chloro-2-((4-(4-(dimethylamino)piperidin-1-yl)-2-methoxyphenyl)amino)pyrimidin-4-yl)amino)phenyl)methanesulfonamide] | 7.8 | 4.7 | – | 1.2 | selectively superior inhibitory ability | 910 | ≥ 30 | ≥ 50 | at least 20% | 340 | 4.2 | 0.16 | 20
